Results as given in patent publication US20050148495A1, “Methods and materials including for treating acne” (priority 2003, published 2005).
Non-standard residues stand in square brackets, D forms with d. Residues, ends and D or L forms follow the SMILES beside them. d1Nal = N[C@H](Cc1cccc2ccccc12)C(=O)O

How the values were obtained:
[1] = Additional studies: intravenous administration safety; format: in vivo; details: intravenously
Description: In additional studies in an acute peritonitis model, mice were challenged intraperitoneally with 1.4×10^7 CFU E. coli 07:K1 and treated intraperitoneally with XMP.629 at 1, 3, or 10 mg/kg or saline. Mice were observed twice daily and mortality was recorded for seven days. Statistical comparisons between the treatment groups and saline were performed using a Chi Square test. […] At 10 mg/kg, 87% protection was observed. In additional studies, XMP.629 was safely administered at a dose of 20 mg/kg intravenously.

[2] = system: polychromatic erythrocyte (PCE) cells in mouse bone marrow; experiment: Mouse bone marrow micronucleus assay; format: in vivo, Crl:CD-1(ICR) BR mouse
Description: XMP.629 was next evaluated for in vivo clastogenic activity and/or disruption of mitotic apparatus by detecting micronuclei in polychromatic erythrocyte (PCE) cells in Crl:CD-1®(ICR) BR mouse bone marrow. The assay design was based on OECD Guideline 474, updated and adopted Jul. 21, 1997. In this micronucleus assay, XMP.629 was formulated in 10 mM sodium acetate buffer (pH 6.0) and dosed by intraperitoneal injection to six males per dose level at each scheduled harvest timepoint. The dose levels were 2, 4, or 8 mg/kg. Five animals dosed with XMP.629 at 2 or 4 mg/kg and five animals dosed with a positive control were euthanized approximately 24 hours after dosing for extraction of the bone marrow. Five animals per harvest timepoint dosed with XMP.629 at 8 mg/kg and five animals per harvest timepoint dosed with the vehicle control article were euthanized approximately 24 or 48 hours after dosing for extraction of the bone marrow. This micronucleus test can serve as a rapid screen for compounds which interfere with normal mitotic cell division (Schmid, 1975, Mutat. Res. 31: 9-15; Heddle et al., 1983, Mutat. Res. 123: 61-118; Heddle et al., 1991, Env. And Mol. Mutagen. 18: 277-291). At least 2000 PCEs per animal were analyzed for the frequency of micronuclei. Cytotoxicity was assessed by scoring the number of PCEs and normochromatic erythrocytes (NCEs) in at least the first 500 erythrocytes for each avenal. […] Therefore, XMP.629 was determined to be negative in the mouse bone marrow micronucleus assay.

[3] = system: CD [Crl:CD (SD)IGS BR] rats; experiment: Rat subchronic toxicity test, subcutaneous, 30 days; format: in vivo
Description: XMP.629 was evaluated for potential subchronic dose toxicity after at least 30 consecutive days of administration to CD®[CrI: CD® (SD)IGS BR] rats. This study consisted of four main study groups, each containing ten rats/sex/group, and four toxicokinetic (TK) groups each containing six rats/sex/group. Three of the four main study and TK groups received XMP.629 by bolus subcutaneous injection at dose levels of 0.3, 1.0, and 3.0 mg/kg/day and at a dose volume of 3.0 mL/kg. One main study and TK group each served as control groups and received a vehicle (saline/sodium acetate buffer, pH 6.0) at the same dose volume. The TK groups were used for the assessment of plasma XMP.629 concentrations and to evaluate potential effects from repeat-dose administration of XMP.629 on antibody formation in a standardized assay. Blood was collected for plasma analysis on Days 1 and 28. […]
All rats were observed twice daily for morbidity, mortality, injury, and availability of food and water. Body weights were measured pretest and weekly for all rats and observations for clinical signs and measurements for food consumption were conducted weekly during the course of the study on main study rats. […] At the end of the treatment period for the main study rats, various hematology, clinical chemistry, and urinalysis parameters were evaluated. […]

[4] = 72 hours following dosing

## CC(C)C[C@@H](NC(=O)[C@H](N)CCCCN)C(=O)N[C@H](Cc1ccccc1)C(=O)N[C@H](CCCNC(=N)N)C(=O)N[C@H](Cc1cccc2ccccc12)C(=O)N[C@H](CCC(N)=O)C(=O)N[C@H](C)C(=O)N[C@H](CCCCN)C(=O)N[C@H](Cc1cccc2ccccc12)C(N)=O [XMP.629, NH2-lys-leu-phe-arg-(3-(1-naphthyl)-ala)-gln-ala-lys-(3-(1-naphthyl)-ala)-CONH2] (H-[dK][dL][dF][dR][d1Nal][dQ][dA][dK][d1Nal]-NH2)
[1]
  dose safely administered: 20 mg/kg
[2]; 2, 4, or 8 mg/kg intraperitoneal
  mouse bone marrow micronucleus assay result: negative
[2]; any dose level tested
  cytotoxicity to the bone marrow (PCE:NCE ratios): not cytotoxic to the bone marrow
[2]; up to 8 mg/kg
  signs of clinical toxicity: did not induce any signs of clinical toxicity
[3]; 0.3, 1.0, and 3.0 mg/kg/day subcutaneous for 30 days
  main finding: injection site lesions
[3]; subcutaneous, 30 days
  no-observed-effect level (NOEL) for systemic effects: greater than 3.0 mg/kg/day
[4]
  radioactivity remained in the body (carcass): 79.7%
